The values below come from US6984619B1, “Method for protection against tumor metastasis formation” (Arch Development Corporation, priority 1999, dated 2006).

The nature of data set [1]: Blood level of WR-2721 in mice. Format: in vivo. Conditions: 400 mg/kg dose. How it is done:
It is also understood that uptake after is species and organ/tissue dependent. The applicable conversion factors and physiological assumptions to be made concerning uptake and concentration measurement are well-known and would permit those of skill in the art to convert one concentration measurement to another and make reasonable comparisons and conclusions regarding the doses, afficacies and results described herein. By way of example only, in mice given 100 mg/kg WR-2721, 30-minute blood levels are reported at 49 micrograms/ml or 0.23 mM. Accordingly, a 400 mg/kg dose would correspond to a concentration of WR-2721 of about 1.0 mM. Likewise, a human subject given about 740 mg/m^2 of WR-2721 (by IV infusion) would have an initial plasma level at about 100 micromol/liter or 0.1 mM.

In the next data set the test system is MCa-K. In words: Spontaneous lung metastasis assay, MCa-K adenocarcinoma. Format: in vivo, C3Hf/Kam mice. Particulars: 50 mg/kg WR-2721, MCaK tumor. How it is done:
(§1) Animal system and experimental tumors. Experiments have been performed using C3Hf/Kam mice obtained from the University of Texas M.D. Anderson Cancer Center, Houston, Tex. Male mice were at least 110 days of age at the initiation of studies. Studies involving tumors included the use of two syngeneic adenocarcinomas (MCa-K and OCa-I,) and one sarcoma (SA-NH). Tumors were grown in the hind legs or flanks of animals. Single-cell suspensions of 5×10^5 viable tumor cells prepared from excised tumors were injected into the hind leg (spontaneous metastasis assay) or the lateral tail veins (artificial metastasis assay) of mice to develop pulmonary nodules (D. J. Grdina et al., 1974; D. J. Grdina et al., 1977; N. Suzuki et al., 1977; D. J. Grdina et al., 1978). […] Twenty-three days following amputation, the animals were sacrificed, their lungs removed, fixed in Bouin's solution, and lung metastases counted. For the artificial metastases studies, mice were sacrificed 14 days after tumor cell inoculation and lung metastases counted (D. J. Grdina et al., 1974; D. J. Grdina et al., 1977; N. Suzuki et al., 1977; D. J. Grdina et al., 1978).
(§2) Presented in Table 1 is a comparison of the effects of amifostine on the mean number of spontaneous metastases formed in the lungs of mice. […] The level of significance was determined using a t-test for binomial proportions (Walpole and Myers, 1978). […]

The conditions of data set [2]: cited from earlier work.
Data set [3] relates to hprt locus in splenocytes. Particulars: mice; cited from earlier work.
Another data set has as its system angiostatin. In words: Blood angiostatin by Western blot in mice with or without SA-NH tumor. Format: in vivo, C3Hf/Kam mice. How it is done:
FIG. 2. SA-NH Murine Tumor. Tumor cells (3–5×10^5) were injected into right leg muscle of C3Hf/Kam male mice. Each group consisted of 5 mice. Mice were injected i.p. with 50 mg/kg of Amifostine (Ami) one day after innoculation with viable tumor and every third day (4 times) until amputation (Amp). When tumors grew to 8–9 mm in diameter, the tumor-bearing leg was amputated. Blood was collected using a 1 ml tuberculine syringe rinsed with EDTA (100 mg/ml) or heparin and placed in an EDTA-coated microcentrifuge tube and centrifuged at 250 rpm for 10 min. The resulting supernatants were collected and frozen at −70° C. until assayed for angiostatin by Western blot analysis.
Low non-cytoprotective doses of Amifostine, in the range of 50 to 100 mg/kg, were administered every other day for six days to C3Hf/Kam mice bearing SA-NH sarcomas and twice thereafter following the surgical removal of the tumors. […] Amifostine or its free thiol form designated WR-1065 was further evaluated regarding three processes implicated in the metastatic process. (FIG. 2).
On the technique in general: Immunoblotting shows a protein as a band on a membrane.

Another data set relates to OCa-I. In words: Spontaneous lung metastasis assay, OCa-I adenocarcinoma. In kind it is in vivo, C3Hf/Kam mice. Particulars: 50 mg/kg WR-2721, OCa tumor. How it is done: as §1, §2
For data set [4] the following is noted: C3H mouse system; cited from earlier work.
The next data set relates to SA-NH. In words: Spontaneous lung metastasis assay, SA-NH sarcoma implanted i.m., leg amputated. In kind it is in vivo, C3Hf/Kam mice. Particulars: for probability of developing spontaneous metastases (FIG. 1): 200, 100 or 50 mg/kg i.p., greater effects at the lower doses. How it is done:
Animal system and experimental tumors. Experiments have been performed using C3Hf/Kam mice obtained from the University of Texas M.D. Anderson Cancer Center, Houston, Tex. Male mice were at least 110 days of age at the initiation of studies. Studies involving tumors included the use of two syngeneic adenocarcinomas (MCa-K and OCa-I,) and one sarcoma (SA-NH). Tumors were grown in the hind legs or flanks of animals. Single-cell suspensions of 5×10^5 viable tumor cells prepared from excised tumors were injected into the hind leg (spontaneous metastasis assay) or the lateral tail veins (artificial metastasis assay) of mice to develop pulmonary nodules (D. J. Grdina et al., 1974; D. J. Grdina et al., 1977; N. Suzuki et al., 1977; D. J. Grdina et al., 1978). For the spontaneous metastases studies, each thiol was administered on the first day following tumor cell inoculation, and then every third day until the tumor reaches 8.0 to 8.5 mm in diameter. At that time the tumor bearing leg is amputated and thiols were administered two and four days later. Twenty-three days following amputation, the animals were sacrificed, their lungs removed, fixed in Bouin's solution, and lung metastases counted. For the artificial metastases studies, mice were sacrificed 14 days after tumor cell inoculation and lung metastases counted (D. J. Grdina et al., 1974; D. J. Grdina et al., 1977; N. Suzuki et al., 1977; D. J. Grdina et al., 1978).
This tumor is p53 wild-type (R. Schimming et al., 1999). A tumor cell suspension containing 5×10^5 viable SA-NH cells was implanted i.m. into the right thighs of three month old male C3Hf/Kam mice. When tumors grew to 8 to 8.5 mm in diameter, each tumor bearing leg was amputated and the animals were then sacrificed 23 days later to assess both the incidence of mice developing metastases and numbers of spontaneous lung metastases formed per mouse. To assess the effects of amifostine on this process, different groups of mice were injected i.p. with 200, 100, or 50 mg/kg of WR-2721 according to the following protocol: drug administration on the first day following inoculation with tumor cells and then every third day until amputation with a final injection 2 days later.
Presented in Table 1 is a comparison of the effects of amifostine on the mean number of spontaneous metastases formed in the lungs of mice. Table 2 presents data regarding the effects of amifostine on affecting the incidence of metastasis formation using these tumor systems. The level of significance was determined using a t-test for binomial proportions (Walpole and Myers, 1978). Treatment of animals with 50 mg/kg of amifostine reduced the incidence of spontaneous metastasis development by these tumors at a level of significance of p<0.025.

Like-named read-outs stand apart in the source and are kept apart here.

With `NCCCNCCSP(=O)(O)O` [WR-2721, S-2-(3-aminopropylamino)ethyl phosphorothioic acid], the “concentration of WR-2721 corresponding to dose” value in data set [1] is “about 1.0 mM”. In addition, the “number of spontaneous metastases (mean ± s.e.)” value is on record as 1.7 ± 1.3 in the data set on MCa-K; 0.5 ± 0.14 with OCa-I; 2.9 ± 1.1 in the data set on SA-NH (50 mg/kg WR-2721 i.p., lung metastases per mouse, Sa-NH tumor). The net charge result in data set [2] (disulfide form) was “+4”; in data set [2] (thiol form), “+2”. In addition, the “doses at which the antimutagenic effect diminishes” value in data set [3] is “less than 10 mg/kg”. For the same compound, in the data set with angiostatin (Amifostine injections, 50 mg/kg i.p. (FIG. 2)), the “enhancement of angiostatin levels found in control mice” value is reported as “four-fold”. The “angiostatin level after removal of tumors” value in the data set with angiostatin (continued Amifostine treatment following tumor removal) is recorded as “equal to presurgery levels”. Besides, the “induction of angiostatin production” value with angiostatin (tumor-free and tumor-bearing mice (FIG. 2)) is “effective in inducing angiostatin production”. Further, in data set [4], the “cytoprotection at doses below 100 mg/kg” value was “completely ineffective”. Moreover, in data set [4], the “dose required for maximum cytoprotection” value is given as 400 mg/kg. The “reduction in the development of spontaneous metastases in the lungs” value with SA-NH (50 to 100 mg/kg every other day for six days and twice after surgical removal of tumor) is recorded as “four-fold”. In addition, the “probability of developing spontaneous metastases (FIG. 1)” value in the data set with SA-NH (listed as Amifostine) is given as “actually reduced it”; in the data set with SA-NH (listed as amifostine), “reduces the chances of developing spontaneous metastases”.
